The source of these data is patent publication US11046686B2, “Thiadiazole IRAK4 compounds” (Gilead Sciences, Inc., priority 2018, dated 2021).

The first experiment has as its system TNFα. Put plainly: IRAK4 Monocyte TNFα Cell Based Assay. More on the design: species or system human. As to conditions: Homo sapiens, Monocyte, human monocytes; second part of Table 2, compounds 33-343; unit inferred; read-out: EC50 MONO TNF HTRF. In a few lines:
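Human monocytes (5,000/well) pretreated with compound 1 h at 37 °C (0.1% DMSO final), then stimulated with 50 pg/ml LPS for 4 h. Secreted TNFα measured by TR-FRET two-antibody detection after overnight incubation at room temperature; % control relative to unstimulated and LPS-stimulated wells.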
In general, EC50 refers to the concentration that produces a half-maximal response. With `CC(C)Nc1cc(-c2ccc3cc(C#N)cnn23)ncc1-c1nnc(N2CCC(F)(F)CC2)s1` [Example 294, 7-(5-(5-(4,4-difluoropiperidin-1-yl)-1,3,4-thiadiazol-2-yl)-4-(isopropylamino)pyridin-2-yl)pyrrolo[1,2-b]pyridazine-3-carbonitrile], the EC50 is 1000 nM.

Staying with this experiment, now noted: human monocytes; second part of Table 2, compounds 33-343; unit inferred; read-out: EC50 MONO TNF HTRF.
`CC(C)Nc1cc(-c2ccc3cc(C#N)cnn23)ncc1-c1nnc(N2CCC(O)(CF)CC2)s1` [Example 189]: the 50% effective concentration (EC50) was 16.3 nM.
Same read-out and setting: under `CC(C)Nc1cc(-c2ccc3cc(C#N)cnn23)ncc1-c1nnc([C@H]2C[C@@](C)(O)C2)s1` [Example 199, 7-(5-(5-((1s,3s)-3-hydroxy-3-methylcyclobutyl)-1,3,4-thiadiazol-2-yl)-4-(isopropylamino)pyridin-2-yl)pyrrolo[1,2-b]pyridazine-3-carbonitrile] stands 38.3 nM.
The same measure, in the same setting: as for `CC(=O)N[C@H]1C[C@H](c2nnc(-c3cnc(-c4ccc5cc(C#N)cnn45)cc3NC3CCOCC3)s2)C1` [Example 201], the figure is 34.9 nM.
In the case of `CC(=O)N[C@H]1C[C@H](c2nnc(-c3cnc(-c4ccc5cc(C#N)cnn45)cc3NC3COC3)s2)C1` [Example 202], the half-maximal effective concentration (EC50) turned out to be 166 nM.
For `CC(=O)N[C@@H]1C[C@H]2COC[C@@H](C1)N2c1nnc(-c2cnc(-c3ccc4cc(C#N)cnn34)cc2NC(C)C)s1` [Example 209, N-((1R,5S,7r)-9-(5-(6-(3-cyanopyrrolo[1,2-b]pyridazin-7-yl)-4-(isopropylamino)pyridin-3-yl)-1,3,4-thiadiazol-2-yl)-3-oxa-9-azabicyclo[3.3.1]nonan-7-yl)acetamide], the concentration for a half-maximal effect (EC50) was 9.6 nM.
Still for that read-out and setting: as for `CC1(Nc2cc(-c3ccc4cc(C#N)cnn34)ncc2-c2nnc(N3C[C@H]4CC[C@@H](C3)[C@@H]4NC(=O)C(C)(C)O)s2)COC1` [Example 210, N-((1R,5S,8s)-3-(5-(6-(3-cyanopyrrolo[1,2-b]pyridazin-7-yl)-4-((3-methyloxetan-3-yl)amino)pyridin-3-yl)-1,3,4-thiadiazol-2-yl)-3-azabicyclo[3.2.1]octan-8-yl)-2-hydroxy-2-methylpropanamide], the figure is 2.8 nM; as for `CC(C)Nc1cc(-c2ccc3cc(C#N)cnn23)ncc1-c1nnc(C(=O)N[C@H]2C[C@H](O)C2)s1` [Example 213, 5-(6-(3-cyanopyrrolo[1,2-b]pyridazin-7-yl)-4-(isopropylamino)pyridin-3-yl)-N-((1r,3r)-3-hydroxycyclobutyl)-1,3,4-thiadiazole-2-carboxamide], 1830 nM.
Same read-out and setting: as for `CC(C)Nc1cc(-c2ccc3cc(C#N)cnn23)ncc1-c1nnc(C(=O)N[C@H]2C[C@@H](O)C2)s1` [Example 215, 5-(6-(3-cyanopyrrolo[1,2-b]pyridazin-7-yl)-4-(isopropylamino)pyridin-3-yl)-N-((1s,3s)-3-hydroxycyclobutyl)-1,3,4-thiadiazole-2-carboxamide], the figure is 3100 nM; as for `CC(C)Nc1cc(-c2ccc3cc(C#N)cnn23)ncc1-c1nnc(C(=O)N2CC[C@@H](CO)C2)s1` [Example 216], 18.1 nM.
On the same count and under the same terms, as for `CC(C)Nc1cc(-c2ccc3cc(C#N)cnn23)ncc1-c1nnc(C(=O)N2CCC[C@H]2CO)s1` [Example 217], the figure is 11.1 nM.
As to `CC(C)Nc1cc(-c2ccc3cc(C#N)cnn23)ncc1-c1nnc(C(=O)N[C@H]2C[C@@](C)(O)C2)s1` [Example 218, 5-(6-(3-cyanopyrrolo[1,2-b]pyridazin-7-yl)-4-(isopropylamino)pyridin-3-yl)-N-((1s,3s)-3-hydroxy-3-methylcyclobutyl)-1,3,4-thiadiazole-2-carboxamide], the EC50 was found to be 858 nM.
Consider `CC(C)Nc1cc(-c2ccc3cc(C#N)cnn23)ncc1-c1nnc(C(=O)N[C@H]2C[C@](C)(O)C2)s1` [Example 219], for which the half-maximal effective concentration (EC50) was 2070 nM.
On the same count and under the same terms, as for `CC(C)Nc1cc(-c2ccc3cc(C#N)cnn23)ncc1-c1nnc(C(=O)N[C@H]2CC[C@H](O)CC2)s1` [Example 220, 5-(6-(3-cyanopyrrolo[1,2-b]pyridazin-7-yl)-4-(isopropylamino)pyridin-3-yl)-N-((1r,4r)-4-hydroxycyclohexyl)-1,3,4-thiadiazole-2-carboxamide], the figure is 131 nM; as for `CC(C)Nc1cc(-c2ccc3cc(C#N)cnn23)ncc1-c1nnc(C(=O)N[C@H]2CC[C@@H](O)CC2)s1` [Example 224, 5-(6-(3-cyanopyrrolo[1,2-b]pyridazin-7-yl)-4-(isopropylamino)pyridin-3-yl)-N-((1s,4s)-4-hydroxycyclohexyl)-1,3,4-thiadiazole-2-carboxamide], 4770 nM; as for `CC(=O)NC1CCC(c2nnc(-c3cnc(-c4ccc5cc(C#N)cnn45)cc3NC3CCC(c4cnn(C(F)F)c4)CC3)s2)CC1` [Example 227, N-((1R,4r)-4-(5-(6-(3-cyanopyrrolo[1,2-b]pyridazin-7-yl)-4-(((1r,4R)-4-(1-(difluoromethyl)-1H-pyrazol-4-yl)cyclohexyl)amino)pyridin-3-yl)-1,3,4-thiadiazol-2-yl)cyclohexyl)acetamide], 14.4 nM.
Still for that read-out and setting: as for `CNc1cc(-c2ccc3cc(C#N)cnn23)ncc1-c1nnc([C@H]2C[C@H](NC(C)=O)C2)s1` [Example 282, N-((1r,3r)-3-(5-(6-(3-cyanopyrrolo[1,2-b]pyridazin-7-yl)-4-(methylamino)pyridin-3-yl)-1,3,4-thiadiazol-2-yl)cyclobutyl)acetamide], the figure is 22.4 nM.
The same measure, in the same setting: as for `CC(=O)NC1CC2CC1CC2c1nnc(-c2cnc(-c3ccc4cc(C#N)cnn34)cc2NC(C)C)s1` (centres unmarked) [Example 285, N-(5-(5-(6-(3-cyanopyrrolo[1,2-b]pyridazin-7-yl)-4-(isopropylamino)pyridin-3-yl)-1,3,4-thiadiazol-2-y)bicyclo[2.2.1]heptan-2-yl)acetamide], the figure is 68 nM; as for `CC(C)Nc1cc(-c2ccc3cc(C#N)cnn23)ncc1-c1nnc(N2CCC(C)(O)CC2)s1` [Example 287, 7-(5-(5-(4-hydroxy-4-methylpiperidin-l-yl)-1,3,4-thiadiazol-2-yl)-4-(isopropylamino)pyridin-2-yl)pyrrolo[1,2-b]pyridazine-3-carbonitrile], 9.8 nM; as for `CC(=O)NC[C@H]1C[C@@H](c2nnc(-c3cnc(-c4ccc5cc(C#N)cnn45)cc3NC(C)C)s2)C1` [Example 289, N-(((1s,3s)-3-(5-(6-(3-cyanopyrrolo[1,2-b]pyridazin-7-yl)-4-(isopropylamino)pyridin-3-yl)-1,3,4-thiadiazol-2-yl)cyclobutyl)methyl)acetamide], 21.4 nM.
Take `CC(=O)NC[C@H]1C[C@H](c2nnc(-c3cnc(-c4ccc5cc(C#N)cnn45)cc3NC(C)C)s2)C1` [Example 290, N-(((1r,3r)-3-(5-(6-(3-cyanopyrrolo[1,2-b]pyridazin-7-yl)-4-(isopropylamino)pyridin-3-yl)-1,3,4-thiadiazol-2-yl)cyclobutyl)methyl)acetamide]: the 50% effective concentration (EC50) was found to be 16.2 nM.
On the same count and under the same terms, as for `CNc1cc(-c2ccc3cc(C#N)cnn23)ncc1-c1nnc(N2C[C@H]3CC[C@@H](C2)[C@@H]3NC(C)=O)s1` [Example 292, N-((1R,5S,8s)-3-(5-(6-(3-cyanopyrrolo[1,2-b]pyridazin-7-yl)-4-(methylamino)pyridin-3-yl)-1,3,4-thiadiazol-2-yl)-3-azabicyclo[3.2.1]octan-8-yl)acetamide], the figure is 6.7 nM.
The same measure, in the same setting: under `CC(=O)N(C)[C@@H]1[C@@H]2CC[C@H]1CN(c1nnc(-c3cnc(-c4ccc5cc(C#N)cnn45)cc3NC(C)C)s1)C2` [Example 300] stands 5.3 nM.
